From ChEMBL document CHEMBL5465560, “Selectivity Literature for EUbOPEN Chemogenomic Library” (2024)

Legend:
[1] = target: Serine/threonine-protein kinase RIO2 (Homo sapiens) (UniProt Q9BVS4); assay: Selectivity interaction (KinomeScan (DiscoverX)) EUB0000229b RIOK2; conditions: at 10 µM
[2] = target: Bromodomain adjacent to zinc finger domain protein 1A (Homo sapiens) (UniProt Q9NRL2); assay: Selectivity interaction (Human bromodomain panel (DSF assay)) EUB0000233b BAZ1A
[3] = target: T1, Serine/threonine-protein kinase DCLK3 (Homo sapiens) (UniProt Q9C098); conditions: at 10 µM
T1 sequence (whole entry): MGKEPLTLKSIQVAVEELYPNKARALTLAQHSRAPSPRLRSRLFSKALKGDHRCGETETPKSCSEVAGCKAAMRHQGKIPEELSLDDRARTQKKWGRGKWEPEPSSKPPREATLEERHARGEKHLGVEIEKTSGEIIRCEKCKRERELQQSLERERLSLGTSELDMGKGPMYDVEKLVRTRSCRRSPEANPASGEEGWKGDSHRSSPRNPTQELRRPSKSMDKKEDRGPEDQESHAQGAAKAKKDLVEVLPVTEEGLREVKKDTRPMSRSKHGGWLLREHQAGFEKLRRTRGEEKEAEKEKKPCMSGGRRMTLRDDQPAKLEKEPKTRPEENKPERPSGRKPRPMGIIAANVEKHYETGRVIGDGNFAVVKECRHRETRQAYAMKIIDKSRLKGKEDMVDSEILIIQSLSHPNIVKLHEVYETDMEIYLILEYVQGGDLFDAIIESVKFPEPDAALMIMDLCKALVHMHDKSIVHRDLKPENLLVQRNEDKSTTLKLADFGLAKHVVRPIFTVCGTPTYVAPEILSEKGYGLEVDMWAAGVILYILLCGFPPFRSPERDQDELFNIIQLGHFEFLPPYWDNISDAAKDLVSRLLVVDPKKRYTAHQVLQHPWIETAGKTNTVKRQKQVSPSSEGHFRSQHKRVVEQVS

[4] = target: Vascular endothelial growth factor receptor 1 (Homo sapiens) (UniProt P17948); conditions: at 10 µM
[5] = target: Mitogen-activated protein kinase 10 (Homo sapiens, UniProt P53779); conditions: at 10 µM
[6] = target: Serine/threonine-protein kinase VRK2 (Homo sapiens) (UniProt Q86Y07); assay: Selectivity interaction (KinomeScan (DiscoverX)) EUB0000618a VRK2; conditions: at 10 µM
[7] = target: T2, Mitogen-activated protein kinase kinase kinase 7 (Homo sapiens) (UniProt O43318); assay: Selectivity interaction (KinomeScan (DiscoverX)) EUB0000618a MAP3K7; conditions: at 10 µM
T2 sequence (whole entry): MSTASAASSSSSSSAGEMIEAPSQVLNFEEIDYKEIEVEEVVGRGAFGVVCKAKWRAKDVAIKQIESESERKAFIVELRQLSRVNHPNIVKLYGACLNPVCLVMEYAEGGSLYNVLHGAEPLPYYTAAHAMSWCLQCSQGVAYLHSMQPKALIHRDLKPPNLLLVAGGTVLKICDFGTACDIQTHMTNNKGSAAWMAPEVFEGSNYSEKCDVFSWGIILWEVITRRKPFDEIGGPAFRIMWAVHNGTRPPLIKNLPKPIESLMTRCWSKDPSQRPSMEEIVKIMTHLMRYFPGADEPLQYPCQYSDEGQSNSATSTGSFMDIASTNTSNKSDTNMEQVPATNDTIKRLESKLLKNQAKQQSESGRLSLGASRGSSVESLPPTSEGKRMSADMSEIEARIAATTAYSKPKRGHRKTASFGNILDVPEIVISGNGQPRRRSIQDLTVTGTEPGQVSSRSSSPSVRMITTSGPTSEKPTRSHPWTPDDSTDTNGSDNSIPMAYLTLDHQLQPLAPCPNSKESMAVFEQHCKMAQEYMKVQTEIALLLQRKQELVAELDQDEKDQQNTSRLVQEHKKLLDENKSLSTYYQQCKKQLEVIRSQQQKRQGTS

[8] = target: T3, Serine/threonine-protein kinase BRSK1 (Homo sapiens) (UniProt Q8TDC3); assay: Selectivity interaction (Ambit KINOMEscan and KiNATiv profiling in Jurkat cells) EUB0000090b BRSK1; format: cell-based; conditions: at 1 µM
T3 sequence (whole entry): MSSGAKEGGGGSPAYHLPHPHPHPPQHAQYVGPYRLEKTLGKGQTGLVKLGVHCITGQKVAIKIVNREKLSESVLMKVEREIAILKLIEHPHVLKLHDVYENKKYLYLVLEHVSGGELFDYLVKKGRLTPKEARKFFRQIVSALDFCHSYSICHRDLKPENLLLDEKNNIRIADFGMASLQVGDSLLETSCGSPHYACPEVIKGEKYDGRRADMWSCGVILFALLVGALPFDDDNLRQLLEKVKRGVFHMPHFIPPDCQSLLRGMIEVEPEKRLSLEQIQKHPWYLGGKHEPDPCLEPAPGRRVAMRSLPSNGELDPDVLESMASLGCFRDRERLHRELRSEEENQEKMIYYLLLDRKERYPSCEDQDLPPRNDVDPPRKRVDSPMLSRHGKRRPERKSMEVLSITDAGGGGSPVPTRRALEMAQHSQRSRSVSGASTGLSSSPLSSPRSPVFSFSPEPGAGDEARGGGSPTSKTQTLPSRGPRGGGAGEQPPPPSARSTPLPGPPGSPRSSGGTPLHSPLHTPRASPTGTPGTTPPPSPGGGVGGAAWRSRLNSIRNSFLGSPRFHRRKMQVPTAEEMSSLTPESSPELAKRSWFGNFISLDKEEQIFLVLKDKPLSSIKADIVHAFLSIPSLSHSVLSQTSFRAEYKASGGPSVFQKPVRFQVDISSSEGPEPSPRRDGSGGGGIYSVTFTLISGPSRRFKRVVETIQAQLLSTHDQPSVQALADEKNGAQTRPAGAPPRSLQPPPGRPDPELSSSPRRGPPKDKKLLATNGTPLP

[9] = target: Calcium/calmodulin-dependent protein kinase kinase 2 (Homo sapiens) (UniProt Q96RR4); assay: Selectivity interaction (KinomeScan (DiscoverX)) EUB0001619a CAMKK2; conditions: at 1 µM
Calcium/calmodulin-dependent protein kinase kinase 2 (Homo sapiens), sequence (Q96RR4 2-588 limits assumed): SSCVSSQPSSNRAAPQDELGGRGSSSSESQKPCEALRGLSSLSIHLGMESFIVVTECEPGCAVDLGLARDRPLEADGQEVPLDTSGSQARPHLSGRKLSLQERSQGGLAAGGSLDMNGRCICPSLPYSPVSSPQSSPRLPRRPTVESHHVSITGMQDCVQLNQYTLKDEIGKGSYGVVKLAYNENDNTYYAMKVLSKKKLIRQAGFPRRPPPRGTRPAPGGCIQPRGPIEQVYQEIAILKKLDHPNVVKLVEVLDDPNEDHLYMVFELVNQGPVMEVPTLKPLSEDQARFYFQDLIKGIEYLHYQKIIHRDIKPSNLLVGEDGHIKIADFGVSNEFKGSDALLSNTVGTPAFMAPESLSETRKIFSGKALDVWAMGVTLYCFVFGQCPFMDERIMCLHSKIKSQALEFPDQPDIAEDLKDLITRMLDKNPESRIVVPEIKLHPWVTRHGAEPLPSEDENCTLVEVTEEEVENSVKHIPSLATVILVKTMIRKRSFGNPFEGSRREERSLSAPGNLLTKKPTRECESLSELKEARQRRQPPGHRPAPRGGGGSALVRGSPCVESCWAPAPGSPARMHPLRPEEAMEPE

Mitogen-activated protein kinase 10, sequence (P53779 whole entry): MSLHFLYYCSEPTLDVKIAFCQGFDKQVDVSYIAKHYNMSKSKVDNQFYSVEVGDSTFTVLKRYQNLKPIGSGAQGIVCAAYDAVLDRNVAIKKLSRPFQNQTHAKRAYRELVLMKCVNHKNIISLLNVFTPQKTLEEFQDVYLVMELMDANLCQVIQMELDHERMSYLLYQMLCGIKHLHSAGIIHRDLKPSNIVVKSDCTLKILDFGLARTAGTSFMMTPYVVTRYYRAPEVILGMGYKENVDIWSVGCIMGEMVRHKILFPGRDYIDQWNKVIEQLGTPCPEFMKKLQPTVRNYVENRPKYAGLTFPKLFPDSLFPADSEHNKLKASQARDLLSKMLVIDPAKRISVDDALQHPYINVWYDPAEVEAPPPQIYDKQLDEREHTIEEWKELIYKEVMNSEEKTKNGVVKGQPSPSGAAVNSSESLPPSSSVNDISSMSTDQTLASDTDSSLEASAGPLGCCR
Serine/threonine-protein kinase VRK2 (Homo sapiens), sequence (Q86Y07 whole entry): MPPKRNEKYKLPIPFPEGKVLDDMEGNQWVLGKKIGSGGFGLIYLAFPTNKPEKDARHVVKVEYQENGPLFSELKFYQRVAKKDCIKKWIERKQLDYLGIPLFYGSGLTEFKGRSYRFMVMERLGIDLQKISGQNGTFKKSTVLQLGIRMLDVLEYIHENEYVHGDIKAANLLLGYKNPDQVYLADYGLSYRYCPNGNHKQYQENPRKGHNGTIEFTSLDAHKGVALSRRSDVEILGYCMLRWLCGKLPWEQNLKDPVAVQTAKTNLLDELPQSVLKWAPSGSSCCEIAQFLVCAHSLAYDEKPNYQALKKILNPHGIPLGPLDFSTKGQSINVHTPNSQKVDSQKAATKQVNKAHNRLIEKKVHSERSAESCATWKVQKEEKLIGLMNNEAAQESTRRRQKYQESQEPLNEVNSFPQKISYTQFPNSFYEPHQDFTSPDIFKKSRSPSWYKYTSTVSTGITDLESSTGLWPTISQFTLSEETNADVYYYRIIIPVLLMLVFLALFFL
Serine/threonine-protein kinase RIO2 (Homo sapiens), sequence (Q9BVS4 whole entry, looked up, the tested form may be a part): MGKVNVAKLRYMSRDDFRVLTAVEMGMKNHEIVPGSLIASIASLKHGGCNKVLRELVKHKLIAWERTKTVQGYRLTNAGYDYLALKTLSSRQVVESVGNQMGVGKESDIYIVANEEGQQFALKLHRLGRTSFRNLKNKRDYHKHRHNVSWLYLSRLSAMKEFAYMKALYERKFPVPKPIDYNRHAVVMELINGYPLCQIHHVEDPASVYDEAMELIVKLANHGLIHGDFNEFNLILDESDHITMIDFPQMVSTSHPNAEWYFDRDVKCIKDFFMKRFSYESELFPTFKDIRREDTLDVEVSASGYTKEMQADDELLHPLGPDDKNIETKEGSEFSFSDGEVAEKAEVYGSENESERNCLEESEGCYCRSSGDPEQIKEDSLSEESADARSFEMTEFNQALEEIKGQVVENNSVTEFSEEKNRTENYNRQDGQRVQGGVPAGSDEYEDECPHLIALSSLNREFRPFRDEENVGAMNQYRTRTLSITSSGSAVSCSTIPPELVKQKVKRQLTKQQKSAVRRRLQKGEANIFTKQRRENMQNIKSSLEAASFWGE
Bromodomain adjacent to zinc finger domain protein 1A (Homo sapiens), sequence (Q9NRL2 whole entry, the tested form may be a part): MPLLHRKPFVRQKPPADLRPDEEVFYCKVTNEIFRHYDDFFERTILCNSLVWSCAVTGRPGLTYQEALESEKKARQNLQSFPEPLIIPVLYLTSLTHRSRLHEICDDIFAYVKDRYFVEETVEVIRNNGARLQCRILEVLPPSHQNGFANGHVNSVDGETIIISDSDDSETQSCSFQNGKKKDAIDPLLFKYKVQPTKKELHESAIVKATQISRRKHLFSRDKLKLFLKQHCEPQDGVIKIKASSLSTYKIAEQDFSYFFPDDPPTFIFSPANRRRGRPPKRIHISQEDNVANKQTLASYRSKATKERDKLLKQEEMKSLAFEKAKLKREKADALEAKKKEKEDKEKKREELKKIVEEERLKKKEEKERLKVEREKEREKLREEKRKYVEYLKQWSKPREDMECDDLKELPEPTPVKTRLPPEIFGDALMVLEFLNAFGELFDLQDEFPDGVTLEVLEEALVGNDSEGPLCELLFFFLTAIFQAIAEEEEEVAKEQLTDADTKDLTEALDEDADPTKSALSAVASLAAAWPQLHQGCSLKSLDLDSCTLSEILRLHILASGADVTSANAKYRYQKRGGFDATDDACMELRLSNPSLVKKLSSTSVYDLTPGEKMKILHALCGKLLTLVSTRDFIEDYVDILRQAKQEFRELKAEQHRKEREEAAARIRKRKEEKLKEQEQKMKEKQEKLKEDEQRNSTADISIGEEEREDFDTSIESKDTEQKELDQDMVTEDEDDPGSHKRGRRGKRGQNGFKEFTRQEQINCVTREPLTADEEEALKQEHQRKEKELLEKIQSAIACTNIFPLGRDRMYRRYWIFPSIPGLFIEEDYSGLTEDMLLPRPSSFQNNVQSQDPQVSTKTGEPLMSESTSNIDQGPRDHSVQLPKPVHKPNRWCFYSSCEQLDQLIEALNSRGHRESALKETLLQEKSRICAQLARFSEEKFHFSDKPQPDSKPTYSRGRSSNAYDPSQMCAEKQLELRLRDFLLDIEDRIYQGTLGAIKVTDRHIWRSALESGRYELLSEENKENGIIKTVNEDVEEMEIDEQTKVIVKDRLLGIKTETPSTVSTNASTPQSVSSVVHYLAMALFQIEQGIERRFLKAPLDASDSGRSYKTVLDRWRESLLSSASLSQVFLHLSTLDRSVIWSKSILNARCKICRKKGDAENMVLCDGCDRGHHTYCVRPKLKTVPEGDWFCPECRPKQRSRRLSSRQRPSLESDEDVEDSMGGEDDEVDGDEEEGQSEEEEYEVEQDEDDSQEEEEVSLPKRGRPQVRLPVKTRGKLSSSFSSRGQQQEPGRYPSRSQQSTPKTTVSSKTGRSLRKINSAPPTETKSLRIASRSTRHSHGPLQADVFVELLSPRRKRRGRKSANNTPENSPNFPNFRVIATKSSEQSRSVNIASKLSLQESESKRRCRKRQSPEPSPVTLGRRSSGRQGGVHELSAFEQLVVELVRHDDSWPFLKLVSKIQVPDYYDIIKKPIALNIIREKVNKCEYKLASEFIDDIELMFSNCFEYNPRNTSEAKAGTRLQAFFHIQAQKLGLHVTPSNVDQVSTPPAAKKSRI
Vascular endothelial growth factor receptor 1 (Homo sapiens), sequence (P17948 whole entry): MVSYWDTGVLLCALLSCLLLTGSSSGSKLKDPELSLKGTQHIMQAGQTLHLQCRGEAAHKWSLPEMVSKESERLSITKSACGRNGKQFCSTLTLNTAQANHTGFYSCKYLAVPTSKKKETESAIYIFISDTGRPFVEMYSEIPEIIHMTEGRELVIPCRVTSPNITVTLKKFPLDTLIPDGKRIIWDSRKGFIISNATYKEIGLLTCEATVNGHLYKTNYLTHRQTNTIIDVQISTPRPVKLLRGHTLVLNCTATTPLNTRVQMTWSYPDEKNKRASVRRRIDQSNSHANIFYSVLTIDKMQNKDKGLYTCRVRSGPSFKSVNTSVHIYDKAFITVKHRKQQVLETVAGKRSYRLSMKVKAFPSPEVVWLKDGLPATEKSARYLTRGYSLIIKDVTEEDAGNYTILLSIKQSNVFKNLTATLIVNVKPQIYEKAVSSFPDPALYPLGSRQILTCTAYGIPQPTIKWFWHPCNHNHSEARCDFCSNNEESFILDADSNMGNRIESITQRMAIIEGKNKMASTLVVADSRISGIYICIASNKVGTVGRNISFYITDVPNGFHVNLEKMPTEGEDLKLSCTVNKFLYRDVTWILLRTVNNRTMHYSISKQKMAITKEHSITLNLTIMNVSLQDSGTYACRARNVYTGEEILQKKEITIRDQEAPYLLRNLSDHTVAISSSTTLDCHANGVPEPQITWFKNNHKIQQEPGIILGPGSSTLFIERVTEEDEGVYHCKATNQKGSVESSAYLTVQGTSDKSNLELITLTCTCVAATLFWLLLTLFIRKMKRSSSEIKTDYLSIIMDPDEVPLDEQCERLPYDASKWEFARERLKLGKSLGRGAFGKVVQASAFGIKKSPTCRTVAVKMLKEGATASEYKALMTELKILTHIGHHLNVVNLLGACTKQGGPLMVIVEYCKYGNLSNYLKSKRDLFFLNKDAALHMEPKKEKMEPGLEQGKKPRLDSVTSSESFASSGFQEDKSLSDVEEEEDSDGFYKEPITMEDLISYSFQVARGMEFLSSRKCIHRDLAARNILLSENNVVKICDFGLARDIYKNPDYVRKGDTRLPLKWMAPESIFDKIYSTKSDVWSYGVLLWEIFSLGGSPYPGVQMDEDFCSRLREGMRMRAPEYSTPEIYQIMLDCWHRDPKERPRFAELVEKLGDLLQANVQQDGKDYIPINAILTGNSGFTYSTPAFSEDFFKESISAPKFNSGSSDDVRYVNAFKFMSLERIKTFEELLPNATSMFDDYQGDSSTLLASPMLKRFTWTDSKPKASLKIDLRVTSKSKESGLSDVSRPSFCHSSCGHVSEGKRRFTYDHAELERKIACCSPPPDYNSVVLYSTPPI

COc1cc(N(C)c2ccnc3ccc(C(F)(F)F)cc23)cc(OC)c1OC
% binding [1]: 44%

CN(C)CCCOc1ccc(-c2cc(NCCCn3cccn3)nc(S(C)(=O)=O)n2)cc1
dTM [2]: < 2 K

Cc1cc([C@@H](C)Nc2ccccc2C(=O)O)c2nc(N3CCOCC3)cc(=O)n2c1 [AZD-6482]
% of control [3]: 85%
% of control [4]: 83%
% of control [5]: 82%

O[C@H]1CC[C@H](Nc2ncc3nc(Nc4c(F)cc(F)cc4F)n([C@H]4CCOC4)c3n2)CC1
% of control [6]: 100%
% of control [7]: 99%

CN(C)C/C=C/C(=O)Nc1ccc(C(=O)N2CCCC(Nc3ncc(Cl)c(-c4c[nH]c5ccccc45)n3)C2)cc1 (centres undefined)
% of control [8]: 84%

N#Cc1cccc(-c2c[nH]c3ncnc(N4CCOCC4)c23)c1
% of control [9]: 78%
